From PubChem BioAssay (NCI) come the findings set out here.

SMILES strings stand for the structures.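 Exposure lasted 48 hours, with cells grown in 96-well plates and compounds tested at five concentrations. The concentration for 50% growth inhibition is given as GI50. Definition used: TGI = concentration required for complete inhibition of growth.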 A value given as a limit tells only on which side of the number the result lay.

Some test systems named below: NCI-H522 lung; K-562 leukemia; SK-MEL-5 melanoma; SF-539 CNS; NCI-H23 lung; OVCAR-5 ovarian; U251 CNS; LOX IMVI melanoma; HS 578T breast.
Holding throughout (assay): growth of human tumour cells (NCI), 48 h

Turning to `O=c1[nH]c(C2CCCCC2)nc2cc(Cl)ccc12`, the TGI with NCI-H522 lung, with K-562 leukemia, with SK-MEL-5 melanoma, with SF-539 CNS, in the assay on NCI-H23 lung and with OVCAR-5 ovarian was above 100 µM in each case. In the assay on U251 CNS, this compound yielded a TGI above 100 µM.
With `Cc1ccccc1C(C#N)/C(=N/NC(=O)C(=O)NN)C(=O)Nc1cccc(C(F)(F)F)c1` (stereo not given), the TGI in the assay with NCI-H522 lung, in the assay with K-562 leukemia, in the assay with SK-MEL-5 melanoma, in the assay on SF-539 CNS, with NCI-H23 lung and in the assay with OVCAR-5 ovarian was above 100 µM throughout. The compound also yielded a TGI with U251 CNS above 100 µM.
With `CCOC(=O)c1c2c(n3cccc(F)c13)C(=O)c1ncccc1C2=O`, the GI50 is 0.394 µM in the assay with NCI-H522 lung; 0.357 µM in the assay on K-562 leukemia; 0.0994 µM with SK-MEL-5 melanoma; 0.157 µM in the assay with SF-539 CNS; 0.173 µM with NCI-H23 lung; 1.16 µM in the assay on OVCAR-5 ovarian. The GI50 in the assay on U251 CNS is 0.0411 µM; with LOX IMVI melanoma, 0.0932 µM; in the assay on HS 578T breast it was 0.0362 µM. For the same compound, the TGI is 3.77 µM in the assay with NCI-H522 lung; above 100 µM with K-562 leukemia; 3.22 µM in the assay on SK-MEL-5 melanoma; 1.35 µM with SF-539 CNS; 3.09 µM in the assay on NCI-H23 lung; 18.7 µM with OVCAR-5 ovarian. The TGI amounted to 1.39 µM in the assay with U251 CNS, 1.92 µM in the assay with LOX IMVI melanoma and 25.6 µM with HS 578T breast.
In the case of `CC(C)(C)C1CCN(C(=O)c2ccccc2)CC1`, the TGI in the assay with NCI-H522 lung, in the assay on K-562 leukemia, with SK-MEL-5 melanoma, in the assay with SF-539 CNS, in the assay on NCI-H23 lung and with OVCAR-5 ovarian was above 100 µM each time. Moreover, the TGI in the assay with U251 CNS and in the assay with LOX IMVI melanoma was above 100 µM throughout.
As to `O=c1nc2[nH]nc(-c3ccccc3)c2n[nH]1`, the TGI in the assay with NCI-H522 lung is above 100 µM; in the assay on K-562 leukemia, above 100 µM; with SF-539 CNS it was 36.4 µM; with NCI-H23 lung, above 100 µM; with OVCAR-5 ovarian, above 100 µM; with U251 CNS, above 100 µM. This compound displayed a TGI with LOX IMVI melanoma above 100 µM.
For `O=CN/C=C/c1ccccc1O`, the TGI was above 100 µM with NCI-H522 lung; above 31.6 µM with K-562 leukemia; above 100 µM with SK-MEL-5 melanoma; above 100 µM in the assay with SF-539 CNS; above 100 µM in the assay on NCI-H23 lung; above 100 µM in the assay on OVCAR-5 ovarian. The TGI with U251 CNS and in the assay with LOX IMVI melanoma was above 100 µM throughout.
As for `COC(=O)c1cc(O)ccc1NC(=O)c1ccc(O)cc1`, the TGI with NCI-H522 lung, with K-562 leukemia, in the assay with SK-MEL-5 melanoma, in the assay with SF-539 CNS, in the assay on NCI-H23 lung and in the assay on OVCAR-5 ovarian was above 100 µM each time. Also, the TGI in the assay on U251 CNS and with LOX IMVI melanoma was above 100 µM each time.
As for `COc1ccc(OC)c2c3c(ncc12)-c1cc2c(cc1C3)OCO2`, the GI50 in the assay with NCI-H522 lung was 52.3 µM; in the assay on K-562 leukemia, 24.6 µM; with SK-MEL-5 melanoma, 22.1 µM; in the assay with OVCAR-5 ovarian it was above 100 µM; in the assay with U251 CNS, 0.209 µM; in the assay with LOX IMVI melanoma it was 0.104 µM. The GI50 in the assay with HS 578T breast was 7.01 µM. Further, the TGI with NCI-H522 lung is above 100 µM; in the assay on K-562 leukemia, above 100 µM; in the assay with SK-MEL-5 melanoma, above 100 µM; in the assay with OVCAR-5 ovarian, above 100 µM; with U251 CNS, 3.31 µM; in the assay on LOX IMVI melanoma, 1.85 µM. Further, the TGI in the assay on HS 578T breast amounted to 62.1 µM.
Turning to `O=C1C=CC(=O)N1CCCCCCCCCCN1C(=O)C=CC1=O`, the GI50 in the assay on NCI-H522 lung was 1.6 µM; in the assay with K-562 leukemia it was 7.63 µM; with SK-MEL-5 melanoma, 22.2 µM; in the assay with SF-539 CNS it was 16.4 µM; in the assay with NCI-H23 lung, 15.6 µM; with OVCAR-5 ovarian, 17.4 µM. Besides, the GI50 is 17 µM in the assay on U251 CNS, 11.3 µM in the assay on LOX IMVI melanoma and 16.3 µM in the assay on HS 578T breast. For the same compound, the TGI in the assay on NCI-H522 lung amounted to 3.41 µM; in the assay with K-562 leukemia, 67.9 µM; with SK-MEL-5 melanoma, 56.1 µM; in the assay with SF-539 CNS, 30.6 µM; in the assay with NCI-H23 lung, 31.6 µM; in the assay on OVCAR-5 ovarian, 31.6 µM. Moreover, the TGI in the assay on U251 CNS stood at 37.8 µM; with LOX IMVI melanoma, 24.4 µM; with HS 578T breast it was 56.9 µM.
Regarding `COc1cc([C@@H]2c3cc4c(cc3[C@@H](NC(=O)c3ccc([N+](=O)[O-])cc3)C3COC(=O)[C@@H]32)OCO4)cc(OC)c1O` (stereo not given in full), the TGI was 2.09 µM in the assay on NCI-H522 lung; above 100 µM with K-562 leukemia; 3.53 µM with SK-MEL-5 melanoma; 2.06 µM in the assay on SF-539 CNS; 1.46 µM with NCI-H23 lung; 76.2 µM in the assay on OVCAR-5 ovarian. For the same compound, the TGI in the assay with U251 CNS was found to be 1.21 µM; with LOX IMVI melanoma it was 5.86 µM.
For `[O-][N+]1=C(c2ccccc2)COc2ccccc21`, the TGI in the assay with NCI-H522 lung, in the assay on K-562 leukemia, in the assay with SK-MEL-5 melanoma, in the assay on SF-539 CNS, in the assay with NCI-H23 lung and in the assay on OVCAR-5 ovarian was above 100 µM in each case. For the same compound, the TGI in the assay on U251 CNS and in the assay with LOX IMVI melanoma was above 100 µM each time.
As to `C/C(CC(=O)Nc1ccc([N+](=O)[O-])cc1)=N/N=C(N)N`, the TGI in the assay with NCI-H522 lung, in the assay with K-562 leukemia, in the assay with SK-MEL-5 melanoma, in the assay on SF-539 CNS, in the assay on NCI-H23 lung and in the assay on OVCAR-5 ovarian was above 100 µM in each case. The TGI in the assay with U251 CNS and in the assay on LOX IMVI melanoma was above 100 µM in each case.
As for `Cc1cc2c(=O)cc(-c3ccc(C(=O)O)cc3)oc2c(C(=O)O)c1C`, the TGI in the assay on NCI-H522 lung, in the assay on K-562 leukemia, in the assay on SK-MEL-5 melanoma, in the assay with SF-539 CNS, with NCI-H23 lung and in the assay with OVCAR-5 ovarian was above 100 µM throughout. Further, the TGI in the assay with U251 CNS and in the assay on LOX IMVI melanoma was above 100 µM throughout.
As for `O=C1[C@H](c2ccccc2)C2c3ccccc3CCN12` (stereo not given in full), the GI50 in the assay on NCI-H522 lung, with K-562 leukemia, in the assay on SK-MEL-5 melanoma, in the assay with SF-539 CNS, with NCI-H23 lung and with OVCAR-5 ovarian was above 100 µM throughout. Further, the GI50 in the assay on U251 CNS, with LOX IMVI melanoma and with HS 578T breast was above 100 µM throughout. Besides, the TGI in the assay with NCI-H522 lung, in the assay with K-562 leukemia, with SK-MEL-5 melanoma, with SF-539 CNS, with NCI-H23 lung and in the assay with OVCAR-5 ovarian was above 100 µM each time. Moreover, the TGI in the assay with U251 CNS, with LOX IMVI melanoma and with HS 578T breast was above 100 µM each time.
